Results on 3 molecules are retold here after patent US10881662B2, “Intracellular ATP enhancer” (StaGen Co., Ltd., priority 2016, dated 2021).

One assay has as its system blood Hx (hypoxanthine). In words: Test Example 1: blood purine concentrations by HPLC, hypoxanthine. The class given is in vivo, human. The conditions noted are these: Week 0 to Week 2. The procedure:
(§1) Various purines in peripheral blood were measured according to the Reference. Briefly, peripheral blood was collected with EDTA, 500 μL mixed with 500 μL ice cold 8% PCA, immediately vortexed for five seconds, and centrifuged at 12,000×g for 10 minutes at 4° C., and the supernatant was stored at −80° C. The processed sample was then dissolved, with 40 μL of 2M K2CO3 in 6 M KOH added to 650 μL of the solution to simultaneously precipitate the PCA and neutralize the solution. After this solution was centrifuged at 12,000×g for 10 minutes at 4° C., 160 μL of a mobile phase was added to 40 μL of the supernatant and applied to HPLC. The conditions of HPLC were also set according to the Reference. The amounts of purines are expressed in molar quantity contained in 1 L of whole blood.
(§2) Coolen E J, Arts I C, Swennen E L, Bast A, Stuart M A, Dagnelie P C. Simultaneous determination of adenosine triphosphate and its metabolites in human whole blood by RP-HPLC and UV-detection. J Chromatogr B Analyt Technol Biomed Life Sci. 2008 Mar. 15; 864(1-2): 43-51.
(§3) The following administration test was conducted for 16 Japanese healthy adult males, one subject in Phase I and 15 subjects in Phase II divided into Group A to Group E with 3 subjects each.
(§4) After Phase I, the following contents were administered to three subjects in each group:
(§5) Group A: febuxostat 20 mg twice a day for 14 days;
(§6) Group B: inosine 500 mg of twice a day for 14 days;
(§7) Group C: febuxostat 20 mg and inosine 500 mg twice a day for 14 days;
(§8) Group D: febuxostat 20 mg and inosine 1000 mg twice a day for 14 days; and
(§9) Group E: febuxostat 30 mg twice a day for 14 days.

For the next assay, the system named is blood ATP. In words: Test Example 1: blood purine concentrations by HPLC, ATP. To be noted: Week 0 to Week 2. It is filed as in vivo, human. The method, then:
as §1, §2, §3, §4, §5, §6, §7, §8, §9

A further assay concerns serum uric acid. The experiment in a line: Test Example 1: serum uric acid value (uricase-peroxidase method). The class given is in vivo, human. The procedure:
For a clinical chemistry automatic analyzer, a dry clinical chemistry analysis measuring unit manufactured by ARKRAY, Inc. was used, and the serum uric acid value was measured by using the uricase-peroxidase method.
The following administration test was conducted for 16 Japanese healthy adult males, one subject in Phase I and 15 subjects in Phase II divided into Group A to Group E with 3 subjects each. […]
After Phase I, the following contents were administered to three subjects in each group: […]
as §9

In the next assay the test system is urinary Hx. The experiment in a line: Test Example 1: urinary purine concentrations, hypoxanthine. To be noted: Week 0 to Week 2, FIG. 5; single administration or combined use, doses not distinguished. The class given is in vivo, human. The method, then: as §1
The purine concentrations were measured by the same method as in (4).
as §3, §4, §5, §6, §7
Group D: febuxostat 20 mg and inosine 1000 mg twice a day for 14 days; and […]

Assay [1] concerns model mouse of amyotrophic lateral sclerosis. The conditions noted are these: model mouse of ALS; cited from earlier work.
The test system of a further assay is urinary X. In words: Test Example 1: urinary purine concentrations, xanthine. It is filed as in vivo, human. To be noted: for change in urinary X concentration: Week 0 to Week 2, FIG. 5, single administration or combined use, doses not distinguished.
For a further assay, the system named is blood X (xanthine). The experiment in a line: Test Example 1: blood purine concentrations by HPLC, xanthine. It is filed as in vivo, human. To be noted: Week 0 to Week 2. The method, then: as §1, §2, §3, §4, §5, §6, §7, §8, §9
The next assay relates to urinary uric acid. In words: Test Example 1: urinary uric acid concentration/creatinine concentration. To be noted: Week 0 to Week 2. The class given is in vivo, human. The method, then:
Since the urinary uric acid concentration varies with urine volume, a urinary uric acid amount was evaluated by using a urinary uric acid/creatinine value acquired by dividing by urinary creatinine concentration. The measurement method of the uric acid value was the same as that for the serum uric acid value.
as §3, §4, §5, §6, §7, §8, §9

Assay [2] has as its system patients with chronic stable angina. The conditions noted are these: high-dose administration; cited from earlier work.
In the next assay the test system is multiple sclerosis. The conditions noted are these: administration of inosine; cited from earlier work.
The next assay has as its system Parkinson's disease. The conditions noted are these: administration of inosine; cited from earlier work.
The subject of assay [3] is erythrocytes with low ATP. The conditions noted are these: erythrocytes left at low temperature for 20 to 30 days, inosine added, left to stand for 1 hour; cited from earlier work.
Where [4] appears, read: Group E: febuxostat 60 mg/day alone for 14 days.
The mark [5] stands for this setting: Groups A-C: febuxostat 20 mg and/or inosine 500 mg twice a day for 14 days.
The mark [6] stands for this setting: Group E: febuxostat 30 mg twice a day for 14 days.

In the case of `Cc1nc(-c2ccc(OCC(C)C)c(C#N)c2)sc1C(=O)O` [febuxostat], the “change in blood Hx (hypoxanthine) concentration” value in the assay with blood Hx (hypoxanthine) (setting [4]) is recorded as “slight rise”; with blood Hx (hypoxanthine) (setting [5]), “unchanged”. The “change in blood ATP concentration” value in the assay on blood ATP (setting [6]) is “No certain tendency was observed”; with blood ATP (setting [5]) it was “not changed”. Besides, in the assay on serum uric acid (Phase II Group E: febuxostat 30 mg twice a day (60 mg/day) for 14 days), the “serum uric acid value, lowest observed” value was “less than 2 mg/dL”. Besides, the “serum uric acid value reduced by” value in the assay on serum uric acid (Phase II Group E: febuxostat 30 mg twice a day for 14 days) was determined as 3.93 mg/dL; in the assay on serum uric acid (Phase II Groups A and C: febuxostat 20 mg alone or with inosine 500 mg, twice a day for 14 days) it was 2.53 mg/dL. In addition, the “serum uric acid value, not reduced to less than” value in the assay with serum uric acid (Phase II, any of the administration examples of 40 mg/day of febuxostat, 14 days) is not below 2 mg/dL. The “change in urinary Hx concentration” value in the assay on urinary Hx is on record as “moderate rise”. Also, the “disease progression of amyotrophic lateral sclerosis” value in assay [1] was “inhibits disease progression”. In addition, the “maximum concentration of urinary X” value in the assay on urinary X (setting [6]) was 867.7 µM; in the assay with urinary X (setting [5]) it was 556.0 µM. Besides, in the assay on urinary X, the “change in urinary X concentration” value is given as “significantly increased”. The figures for the “change in blood X (xanthine) concentration” value in the assay with blood X (xanthine) (setting [4]) and in the assay on blood X (xanthine) (setting [5]) were “rise” and “significantly increased”, respectively. Besides, the “change in urinary uric acid/creatinine” value in the assay with urinary uric acid (setting [6]) and in the assay on urinary uric acid (setting [5]) was “reduced” in each case.

With `Oc1ncnc2[nH]ncc12` [allopurinol], in assay [2], the “symptoms of chronic stable angina” value was “suppressed”.

Consider `OC[C@H]1O[C@@H](n2cnc3c(O)ncnc32)[C@H](O)[C@@H]1O` [inosine], for which the “change in blood Hx (hypoxanthine) concentration” value in the assay with blood Hx (hypoxanthine) (setting [5]) is reported as “neither Hx nor X changed”. In the assay with multiple sclerosis, the “symptoms of multiple sclerosis” value was “alleviates symptoms”. Further, the “change in blood ATP concentration” value in the assay with blood ATP (setting [5]) is recorded as “not changed”. Moreover, the results for the “serum uric acid value increase due to inosine in the presence of febuxostat” value in the assay with serum uric acid (1 g/day inosine in the presence of 40 mg/day of febuxostat (Group C versus Group A)) and with serum uric acid (2 g/day inosine in the presence of 40 mg/day of febuxostat (Group D versus Group A)) were 0.3 mg/dL and 1.06 mg/dL, respectively. For the same molecule, the “serum uric acid value raised by, on average” value in the assay with serum uric acid (Phase II Group B: inosine 500 mg twice a day (1 g per day) for 14 days, without febuxostat) worked out at 2.57 mg/dL. In addition, the “serum uric acid value, highest observed (up to)” value in the assay with serum uric acid (Phase II Group B: inosine 500 mg twice a day for 14 days) is reported as “up to 8.1 mg/dL”. In the assay with urinary Hx, the “change in urinary Hx concentration” value is on record as “no rise”. In addition, the “maximum concentration of urinary X” value with urinary X (setting [5]) turned out to be 61.9 µM. Also, the “change in urinary X concentration” value with urinary X is reported as “no rise”. The “symptoms of Parkinson's disease” value in the assay with Parkinson's disease was “alleviates symptoms”. For the same molecule, in the assay with blood X (xanthine) (setting [5]), the “change in blood X (xanthine) concentration” value is on record as “neither Hx nor X changed”. Further, the “change in urinary uric acid/creatinine” value in the assay with urinary uric acid (setting [5]) was “significantly increased”. Also, the ATP in erythrocytes result in assay [3] is “ATP increased”.
